According to patent US12673945B2, “3-((8-((1H-pyrazol-4-yl)amino)imidazo[1,2-a]pyridin-3-yl)ethinyl)-n-phenylbenzamide derivative, method for preparing same, and pharmaceutical composition containing same as active ingredient for prevention or treatment of cancer” (DAEGU-GYEONGBUK MEDICAL INNOVATION FOUNDATION, priority 2020, dated 2026):

How the values were obtained:
Format in all cases: cell-based
T315I-Bcr-Abl (Ba/F3) = experiment: Ba/F3 cell proliferation inhibition; conditions: BaF3; 72 hours, Cell Counting Kit-8
Description: (§1) […] lymphocyte cells, Parental (Ba/F3) and T315I-Bcr-Abl (Ba/F3) were seeded in 96-well plates at the density of 1×10^4/90 μL/well. A culture solution containing 9 concentrations (0.015 to 100 μM) of each example compound serially diluted in 3 folds or DMSO (control) were added to the plate ([…]) to a final concentration of 0 to 10 μM. The plate was incubated in a 37° C. CO2 incubator for 72 hours.
(§2) After incubation for 72 hours, the plate treated with the compound was treated with Cell Counting Kit-8 (Dojindo Molecular Technologies, Inc) solution at the concentration of 10 μL/well, and then mixed well. Then, the plate was incubated in a CO2 incubator at 37° C. for 2 hours, and absorbance at 450 nm was measured with a microplate reader. Data were expressed as percentage compared to vehicle treated cells and GI50 values were calculated using GraphPad Prism 5.0 (GraphPad software Inc., San Diego) GraphPad Prism 5.0.

Parental (Ba/F3) = experiment: Ba/F3 cell proliferation inhibition; conditions: BaF3; 72 hours, Cell Counting Kit-8
Description: as §1, §2

TCCS cells = experiment: human CML cell proliferation inhibition; conditions: 72 hours, Cell Counting Kit-8
Description: (§3) In order to evaluate the therapeutic effect of the compound according to the present invention on chronic myelogenous leukemia (CML), the following experiment was performed, and the results are shown in Table 6 below. Inhibitory activity to Bcr-Abl kinase was evaluated through the experiment using TCCS and KOPM28 cells, and inhibitory activity to T315I-Bcr-Abl kinase was evaluated through the experiment using T315I-TCCS and T315I-KOPM28 cells.
(§4) Human chronic myelogenous leukemia (CML) cells used in the experiment were TCCS, T315I-TCCS, KOPM28 and T315I-KOPM28, and the four types of cells were provided by University of Yamanashi.
(§5) Four types of human CML cells were each seeded in 96-well plates at the density of 1×10^4/90 μL/well. A culture solution containing 9 concentrations (0.000256 to 100 μM) of each example compound serially diluted in 5 folds or DMSO (control) were added to the plate (10 μL/well) to a final concentration of 0 to 10 μM. The plate was incubated in a 37° C. CO2 incubator for 72 hours.
as §2, with “8.0” for “5.0”, “Diego).” for “Diego) GraphPad Prism 5.0.”

T315I-KOPM28 cells = experiment: human CML cell proliferation inhibition; conditions: 72 hours, Cell Counting Kit-8
Description: as §3, §4, §5
as §2, with “8.0” for “5.0”, “Diego).” for “Diego) GraphPad Prism 5.0.”

KOPM28 cells = experiment: human CML cell proliferation inhibition; conditions: 72 hours, Cell Counting Kit-8
Description: as §3, §4, §5
as §2, with “8.0” for “5.0”, “Diego).” for “Diego) GraphPad Prism 5.0.”

T315I-TCCS cells = experiment: human CML cell proliferation inhibition; conditions: 72 hours, Cell Counting Kit-8
Description: as §3, §4, §5
as §2, with “8.0” for “5.0”, “Diego).” for “Diego) GraphPad Prism 5.0.”

| SMILES | GI50 (T315I-Bcr-Abl (Ba/F3)) | GI50 (Parental (Ba/F3)) | GI50 (TCCS cells) | GI50 (T315I-KOPM28 cells) | GI50 (KOPM28 cells) | GI50 (T315I-TCCS cells) |
| --- | --- | --- | --- | --- | --- | --- |
| Cc1ccc(C(=O)Nc2cc(CN3CCN(CCO)CC3)cc(C(C)(C)C#N)c2)c(F)c1C#Cc1cnc2c(Nc3cnn(C)c3)cccn12 [Example 12, N-(3-(2-cyanopropan-2-yl)-5-((4-(2-hydroxyethyl)piperazin-1-yl)methyl)phenyl)-2-fluoro-4-methyl-3-((8-((1-methyl-1H-pyrazol-4-yl)amino)imidazo[1,2-a]pyridin-3-yl)ethynyl)benzamide] | 0.05 to 0.5 µM | > 5 µM | < 0.01 µM | > 0.1 µM | < 0.01 µM | 0.1 µM |
| Cc1cc(F)c(C(=O)Nc2cc(CN3CCN(C)C(=O)C3)cc(C(F)(F)F)c2)cc1C#Cc1cnc2c(Nc3cn[nH]c3)cccn12 [Example 107, 5-((8-((1H-pyrazol-4-yl)amino)imidazo[1,2-a]pyridin-3-yl)ethynyl)-2-fluoro-4-methyl-N-(3-((4-methyl-3-oxopiperazin-1-yl)methyl)-5-(trifluoromethyl)phenyl)benzamide] | 0.05 to 0.5 µM | 0.5 to 5 µM | < 0.01 µM | > 0.1 µM | < 0.01 µM | 0.1 µM |
| Cc1cn(-c2cc(NC(=O)c3cc(F)c(C)c(C#Cc4cnc5c(Nc6cnn(C)c6)cccn45)c3)cc(C(F)(F)F)c2)cn1 [Example 5, 3-fluoro-4-methyl-N-(3-(4-methyl-1H-imidazol-1-yl)-5-(trifluoromethyl)phenyl)-5-((8-((1-methyl-1H-pyrazol-4-yl)amino)imidazo[1,2-a]pyridin-3-yl)ethynyl)benzamide] | < 0.05 µM | > 5 µM | 0.1 µM | 0.1 µM | 0.1 µM | 0.1 µM |
| Cc1cn(-c2cc(NC(=O)c3cc(C#Cc4cnc5c(Nc6cn[nH]c6)cccn45)c(C)cc3F)cc(C(F)(F)F)c2)cn1 [Example 95, 5-((8-((1H-pyrazol-4-yl)amino)imidazo[1,2-a]pyridin-3-yl)ethynyl)-2-fluoro-4-methyl-N-(3-(4-methyl-1H-imidazol-1-yl)-5-(trifluoromethyl)phenyl)benzamide] | < 0.05 µM | > 5 µM | < 0.01 µM | 0.1 µM | < 0.01 µM | 0.1 µM |
| Cc1cc(F)c(C(=O)Nc2cc(Oc3ccncc3)cc(C(F)(F)F)c2)cc1C#Cc1cnc2c(Nc3cn[nH]c3)cccn12 [Example 101, 5-((8-((1H-pyrazol-4-yl)amino)imidazo[1,2-a]pyridin-3-yl)ethynyl)-2-fluoro-4-methyl-N-(3-(pyridin-4-yloxy)-5-(trifluoromethyl)phenyl)benzamide] | < 0.05 µM | > 5 µM | < 0.01 µM | 0.1 µM | < 0.01 µM | < 0.01 µM |
| Cc1cc(F)c(C(=O)Nc2ccc(Oc3ccncc3)c(C(F)(F)F)c2)cc1C#Cc1cnc2c(Nc3cnn(C)c3)cccn12 [Example 65, 2-fluoro-4-methyl-5-((8-((1-methyl-1H-pyrazol-4-yl)amino)imidazo[1,2-a]pyridin-3-yl)ethynyl)-N-(4-(pyridin-4-yloxy)-3-(trifluoromethyl)phenyl)benzamide] | 0.05 to 0.5 µM | > 5 µM | < 0.01 µM | 0.1 µM | < 0.01 µM | 0.1 µM |
| Cc1cc(F)c(C(=O)Nc2ccc(CN3CCC(N(C)C)C3)c(C(F)(F)F)c2)cc1C#Cc1cnc2c(Nc3cn[nH]c3)cccn12 (stereo not drawn) [Example 110, 5-((8-((1H-pyrazol-4-yl)amino)imidazo[1,2-a]pyridin-3-yl)ethynyl)-N-(4-((3-(dimethylamino)pyrrolidin-1-yl)methyl)-3-(trifluoromethyl)phenyl)-2-fluoro-4-methylbenzamide] | < 0.05 µM | 0.5 to 5 µM | < 0.01 µM | 0.1 µM | < 0.01 µM | 0.1 µM |

Now from value to compound, other results behind:

| GI50 (T315I-Bcr-Abl (Ba/F3)) | SMILES | GI50 (Parental (Ba/F3)) | GI50 (TCCS cells) | GI50 (T315I-KOPM28 cells) | GI50 (KOPM28 cells) | GI50 (T315I-TCCS cells) |
| --- | --- | --- | --- | --- | --- | --- |
| < 0.05 µM | Cc1cn(-c2cc(NC(=O)c3cc(C#Cc4cnc5c(Nc6cnn(C)c6)cccn45)c(C)cc3Cl)cc(C(F)(F)F)c2)cn1 [Example 14, 2-chloro-4-methyl-N-(3-(4-methyl-1H-imidazol-1-yl)-5-(trifluoromethyl)phenyl)-5-((8-((1-methyl-1H-pyrazol-4-yl)amino)imidazo[1,2-a]pyridin-3-yl)ethynyl)benzamide] | > 5 µM | < 0.01 µM | 0.1 µM | < 0.01 µM | 0.1 µM |
| 0.05 to 0.5 µM | Cc1cc(F)c(C(=O)Nc2cc(CN3CCC(N(C)C)C3)cc(C(C)(C)C#N)c2)cc1C#Cc1cnc2c(Nc3cn[nH]c3)cccn12 (stereo not drawn) [Example 85, 5-((8-((1H-pyrazol-4-yl)amino)imidazo[1,2-a]pyridin-3-yl)ethynyl)-N-(3-(2-cyanopropan-2-yl)-5-((3-(dimethylamino)pyrrolidin-1-yl)methyl)phenyl)-2-fluoro-4-methylbenzamide] | 0.5 to 5 µM | < 0.01 µM | > 0.1 µM | < 0.01 µM | 0.1 µM |
| 0.05 to 0.5 µM | Cc1cc(F)c(C(=O)Nc2cc(OCCN(C)C)cc(C(F)(F)F)c2)cc1C#Cc1cnc2c(Nc3cnn(C)c3)cccn12 [Example 50, N-(3-(2-(dimethylamino)ethoxy)-5-(trifluoromethyl)phenyl)-2-fluoro-4-methyl-5-((8-((1-methyl-1H-pyrazol-4-yl)amino)imidazo[1,2-a]pyridin-3-yl)ethynyl)benzamide] | > 5 µM | < 0.01 µM | > 0.1 µM | < 0.01 µM | 0.1 µM |
| 0.5 to 5 µM | Cc1cc(F)c(C(=O)Nc2ccc(CN3CCN(S(C)(=O)=O)CC3)c(C(F)(F)F)c2)cc1C#Cc1cnc2c(Nc3cn[nH]c3)cccn12 [Example 113, 5-((8-((1H-pyrazol-4-yl)amino)imidazo[1,2-a]pyridin-3-yl)ethynyl)-2-fluoro-4-methyl-N-(4-((4-(methylsulfonyl)piperazin-1-yl)methyl)-3-(trifluoromethyl)phenyl)benzamide] | > 5 µM | < 0.01 µM | > 0.1 µM | < 0.01 µM | > 0.1 µM |
| 0.05 to 0.5 µM | Cc1cc(F)c(C(=O)Nc2cc(CN3CCCN(C)CC3)cc(C(C)(C)C#N)c2)cc1C#Cc1cnc2c(Nc3cnn(C)c3)cccn12 [Example 30, N-(3-(2-cyanopropan-2-yl)-5-((4-methyl-1,4-diazepan-1-yl)methyl)phenyl)-2-fluoro-4-methyl-5-((8-((1-methyl-1H-pyrazol-4-yl)amino)imidazo[1,2-a]pyridin-3-yl)ethynyl)benzamide] | 0.5 to 5 µM | < 0.01 µM | > 0.1 µM | < 0.01 µM | 0.1 µM |
| < 0.05 µM | Cc1cc(Cl)c(C(=O)Nc2cc(Oc3ccncc3)cc(C(F)(F)F)c2)cc1C#Cc1cnc2c(Nc3cnn(C)c3)cccn12 [Example 15, 2-chloro-4-methyl-5-((8-((1-methyl-1H-pyrazol-4-yl)amino)imidazo[1,2-a]pyridin-3-yl)ethynyl)-N-(3-(pyridin-4-yloxy)-5-(trifluoromethyl)phenyl)benzamide] | > 5 µM | < 0.01 µM | < 0.01 µM | < 0.01 µM | < 0.01 µM |
